Test results reported in patent publication US20220196659A1, “METHOD FOR DETERMINING EFFICACY” (LDN Pharma Limited, priority 2019, published 2022).

Experiments:
pERK = assay: PD analysis: Western blotting of PBMCs from normal volunteers after a single naltrexone tablet; type: in vivo, human; conditions: Western blot
Method: There were 5 treatment cohorts with 8 normal volunteers in each cohort. […] PBMCs were harvested at 0 and 48 h by ficoll extraction and lysed in cell lysis buffer. Western blotting was then performed on the samples, and pERK, tERK, BAX and p21 measured.

[1] = tested on: CD3+/CD8+ cells (killer T-cells); assay: CD3+ activation: CD69 expression of PBMCs cultured with LDN or NTX (flow cytometry); type: cell-based; conditions: 48 h culture of PBMCs
Method: Peripheral-blood mononuclear cells were isolated from whole blood or from the residue product of leucoreduction of whole blood from pathologically healthy donors using Histopaque-1077. The mononuclear fraction was harvested and red blood cell contamination removed by incubation in hypotonic ammonium chloride. Cells were washed in phosphate buffered saline (PBS) and platelet contamination removed by centrifugation at 200 g for 10 min, re-suspended at a concentration of 1×10^6 ml in RPMI-1640 culture medium. […] Peripheral-blood mononuclear cells were washed twice in wash buffer (PBS containing 1% (v/v) FBS and 0.09% (v/v) NaN3), and stained for 30 min at 4° C. with the relevant and stated antibodies for assessment of immune cell profile. Cells were washed in wash buffer and fixed in 4% paraformaldehyde for 20 min at 4° C. Expressions of the surface markers were analysed using a BD Bioscience LSR II flow cytometer with dedicated proprietary software.

SMILES: O=C1CC[C@@]2(O)[C@H]3Cc4ccc(O)c5c4[C@@]2(CCN3CC2CC2)[C@H]1O5 [naltrexone, morphinan-6-one,17-(cyclopropylmethyl)-4,5-epoxy-3,14-dihydroxy-(5+)]
- level of pERK expression at 48 h compared to 0 h (pERK; single dose 1 mg tablet): decreased
- level of pERK expression at 48 h compared to 0 h (pERK; single dose 3 mg tablet): increased
- level of pERK expression at 48 h compared to 0 h (pERK; single dose 4.5 mg tablet): decreased
- level of pERK expression at 48 h compared to 0 h (pERK; single dose 6 mg tablet): decreased
- level of pERK expression at 48 h compared to 0 h (pERK; single dose 10 mg tablet): decreased
- CD69 expression in CD3+/CD8+ cells ([1]; 10 nM naltrexone (LDN)): increased
- CD69 expression in CD3+/CD8+ cells ([1]; 10 uM naltrexone (NTX)): did not increase
